Our source for the logP and logD values is the SangsterLogP compilation.

Each structure is given as a SMILES string.

Test in the first series: not given
Conditions: not given
`COc1ccc(CCNCC(O)COc2cccc(C)c2)cc1OC` (stereo unspecified) had a logP of 3.

In turn, `Cc1ccccc1OCC(O)CNCC(O)COc1ccccc1C` (stereo unspecified) registered a logP of 3.67.

On to `O=[N+]([O-])c1ccc(OCC(O)CNCC(O)COc2ccccc2)cc1` (stereo unspecified), for which the logP was 2.62.

Test in another series: not given
Conditions: not given
This is another data set of the same source.
`CCCCOc1cc(C(=O)NCCN(CC)CC)c2ccccc2n1` returned a logP of 4.19.

`Fc1ccc(C(c2ccc(F)cc2)N2CCN(C/C=C/c3ccccc3)CC2)cc1` came in with a logP of 4.83.

For the molecule `COc1ccc(CN2CCN(c3ccccc3)CC2)c(OC)c1OC`, the logP was 3.

Another series is described as follows: method code SF-RC, from DOI: 10.1016/j.bmc.2006.11.022, PMID: 17293116. The note with it: pH 7.4.
Turning to `CNc1ccc(-c2nc3ccc(-c4nc5ccc(Cl)cc5s4)cc3s2)cc1`, the logD worked out at 3.05.

In the case of `CNc1ccc(-c2nc3ccc(-c4nc5ccccc5s4)cc3s2)cc1`, the logD was determined as 2.34.

On to `CN(C)c1ccc(-c2nc3ccc(-c4nc5ccc(F)cc5s4)cc3s2)cc1`, for which the logD came to 2.99.

Test in a further series: not given
Conditions: not given
The source holds these as a separate data set.
On to `Cc1cn(C2CC(N=[N+]=[N-])C(COC(=O)C(=O)N3CCCC3C(=O)O)O2)c(=O)[nH]c1=O` (stereo unspecified), for which the logP is 0.16.

Molecule `Cc1cn(C2CC(N=[N+]=[N-])C(COC(=O)C(=O)NC(C(=O)O)C(C)C)O2)c(=O)[nH]c1=O` (stereo unspecified) showed a logP of 0.68.

With `Cc1cn(C2CC(N=[N+]=[N-])C(COC(=O)C(=O)NC(CC(C)C)C(=O)O)O2)c(=O)[nH]c1=O` (stereo unspecified), the lipophilicity (logP) came to 1.12.

Test in the next series: not given
Conditions: not given
This is another data set of the same source.
The molecule `CCN(CC)C(=O)C(C#N)=Cc1cc(OC(=O)c2ccccc2)c(OC(=O)c2ccccc2)c([N+](=O)[O-])c1` returned a logP of 3.44.

`CCCC(=O)Oc1cc(C=C(C#N)C(=O)N(CC)CC)cc([N+](=O)[O-])c1OC(=O)CCC` displayed a logP of 3.15.

For `CCN(CC)C(=O)C(C#N)=Cc1cc(OC(C)=O)c(OC(C)=O)c([N+](=O)[O-])c1`, the logP was 1.23.

The nature of a further series: method code SF-HPLC, from DOI: 10.1023/a:1016359301852, PMID: 24271710.
Conditions: not given
Consider `C#C[C@]1(O)CC[C@H]2[C@@H]3CCC4=CC(=O)CC[C@@H]4[C@H]3CC[C@@]21C`, for which the logP was 2.97.

`C#CC1(O)CC[C@H]2[C@@H]3CCC4=CC(=O)CC[C@]4(C)[C@H]3CC[C@@]21C` (stereo in doubt): the logP turned out to be 3.11.

The molecule `C#CC1(OC(=O)c2ccn(C)c2)CCC2C3CCC4=CC(=O)CCC4(C)C3CCC21C` (stereo unspecified) had a logP of 4.49.

The next series is described as follows: method code SF-HPLC, from DOI: 10.1016/j.ejmech.2003.12.002, PMID: 15051170.
Conditions: not given
As for `COC(=O)C(C)NP(=O)(OCC1C=CC(n2cc(C)c(=O)[nH]c2=O)O1)Oc1ccccc1Br` (stereo unspecified), the logP amounted to 0.95.

`COC(=O)C(C)NP(=O)(OCC1C=CC(n2cc(C)c(=O)[nH]c2=O)O1)Oc1c(OC)cccc1OC` (stereo unspecified): the logP worked out at 0.4.

`CC1CN(C2C=CC(COP(=O)(NC(C)C(=O)O)Oc3ccc(Br)cc3Cl)O2)C(=O)NC1=O` (stereo unspecified) showed a logP of 1.81.

Another series can be described thus: method code SF-AS, from PMID: 872227. Conditions: pH 7.2.
Turning to `CCCCCCOc1ccc(NC(=O)OCCN2CCOCC2)c(C)c1`, the logD turned out to be 3.9.

Turning to `CCCCOc1ccc(NC(=O)OCCN2CCOCC2)c(C)c1`, the logD was determined as 2.82.

For the molecule `CCCCCOc1ccc(NC(=O)OCCN2CCOCC2)c(C)c1`, the logD amounted to 3.38.

Test in another series: not given
Conditions: not given
This is another data set of the same source.
On to `Cc1cn2c(n1)C1CC(c3ccccc3)CCC1C(C(=O)N(C)C)=C2` (stereo unspecified), for which the logP turned out to be 2.77.

For `CC1N=C2C3=C(CCC(c4ccccc4)C3)C(C(=O)NCCO)=CN2C1C` (stereo unspecified), the logP was 2.81.

The molecule `CC1N=C2C3=C(CCC(c4ccccc4)C3)C(C(N)=O)=CN2C1C` (stereo unspecified) had a logP of 3.21.

The next series is described as follows: method code SF-AS, from DOI: 10.1002/ardp.19853180604, PMID: 4026543. Conditions: pH 7.4.
As for `Cc1nc2ccccc2c(=O)n1N=C1SCC(=O)N1c1ccc(Cl)cc1`, the logD was -1.6.

The molecule `Cc1nc2ccccc2c(=O)n1N=C1SCC(=O)N1c1ccc(Br)cc1` registered a logD of -1.26.

The molecule `Cc1nc2ccccc2c(=O)n1N=C1SCC(=O)N1c1ccccc1` gave a logD of -1.06.

Test in another series: not given
Conditions: not given
This is another data set of the same source.
Turning to `C[C@@H]1CC2=CC(=O)CC[C@@H]2[C@H]2CC[C@@]3(C)[C@@H](CC[C@]3(C)O)[C@@H]21`, the logP was determined as 3.19.

In the case of `C[C@@H]1C[C@@]2(C)[C@@H](CC[C@@H]3[C@@H]2CC[C@]2(C)[C@@H](O)CC[C@@H]32)CC1=O`, the logP turned out to be 3.99.

The molecule `CO[C@H]1CC[C@H]2[C@@H]3CC[C@H]4CC(=O)[C@H](C)C[C@]4(C)[C@H]3CC[C@]12C` came in with a logP of 5.43.

Test in another series: not given
Conditions: not given
The source holds these as a separate data set.
Consider `CCN(CC)CCC(=O)NC1c2ccccc2Oc2c(C)cccc21` (stereo unspecified), for which the logP is 3.55.

Regarding `CCN(CC)CCC(=O)NC1c2ccccc2Sc2c(C)cccc21` (stereo unspecified), the logP turned out to be 4.1.

In the case of `Cc1cccc2c1Sc1ccccc1C2NC(=O)CCN(C)C` (stereo unspecified), the logP turned out to be 3.06.

The next series in a line: method code SF-AS, from DOI: 10.3109/03639048709068705.
Conditions: not given
Consider `CC(C)NCC(COc1cccc2ccccc12)OC(=O)C(C)(C)C` (stereo unspecified), for which the logP was 6.44.

As to `CCC(=O)OC(CNC(C)C)COc1cccc2ccccc12` (stereo unspecified), the logP is 4.99.

Turning to `CCCCCC(=O)OC(CNC(C)C)COc1cccc2ccccc12` (stereo unspecified), the logP came out at 6.85.

The nature of a further series: method code SF-HPLC, from Thijssen, W. (1981). The relationship between Log P, Rm, log k' and the constants pi and f: a study on penicillins. Eur J Med Chem, 16(5)449-452.
Conditions: not given
Take `Cc1onc(-c2c(Cl)cccc2Cl)c1C(=O)NC1C(=O)N2C1S(=O)C(C)(C)C2C(=O)O` (stereo unspecified): the logP turned out to be 2.57.

Molecule `Cc1onc(-c2ccccc2Cl)c1C(=O)NC1C(=O)N2C1S(=O)C(C)(C)C2C(=O)O` (stereo unspecified) displayed a logP of 2.

Turning to `Cc1onc(-c2c(Cl)ccc(O)c2F)c1C(=O)NC1SC2N(C1=O)C(C(=O)O)C2(C)C` (stereo unspecified), the logP came out at 2.23.

Test in a further series: not given
Conditions: not given
This is another data set of the same source.
In the case of `O=C(Nc1ccc2ncnc(Nc3ccc(F)c(Cl)c3)c2c1)c1ccc(F)cc1`, the logP was determined as 4.55.

Regarding `O=C(Nc1ccc2ncnc(Nc3ccc(F)c(Cl)c3)c2c1)c1ccc(I)cc1`, the logP came out at 4.83.

In turn, `O=C(Nc1ccc2ncnc(Nc3ccc(F)c(Cl)c3)c2c1)c1cccc(I)c1` came in with a logP of 5.58.

Test in the next series: not given
Conditions: not given
The source holds these as a separate data set.
`CC(=O)N(CC(O)CO)c1c(I)c(C(=O)NCC(O)CO)c(I)c(C(=O)NCC(O)CO)c1I` (stereo unspecified) came in with a logP of -3.08.

`CC(=O)N(CCO)c1c(I)c(C(=O)NC(CO)CO)c(I)c(C(=O)NC(CO)CO)c1I` came in with a logP of -2.49.

Molecule `CC(=O)N(C[C@@H](O)CO)c1c(I)c(C(=O)NC(CO)CO)c(I)c(N(C(C)=O)[C@@H](O)CO)c1I` registered a logP of -2.64.

A short description of the next series: method code SF-AS, from DOI: 10.1016/j.arabjc.2011.11.013.
Conditions: not given
In turn, `Nc1ccc(C(=O)OCC(=O)Nc2ccc(Cl)cc2C(=O)c2ccccc2)cc1` displayed a logP of 4.78.

In turn, `O=C(CNc1ccccc1)Nc1ccc(Cl)cc1C(=O)c1ccccc1` gave a logP of 4.24.

In turn, `O=C(CNc1ccc(O)cc1)Nc1ccc(Cl)cc1C(=O)c1ccccc1` yielded a logP of 3.5.

A further series is described as follows: from Jayashree, Bs.; Sahu, A.; MM, S.; Venugopala, K. (2006). Synthesis, characterization and determination of partition coefficient of some triazolo thiadiazinyl chlorocoumarin derivatives for their …. Conditions: pH 7.4.
Turning to `O=c1oc2ccc(Cl)cc2cc1C1=Nn2c(nnc2-c2ccccc2O)SC1`, the logD is 0.36.

On to `O=c1oc2ccc(Cl)cc2cc1C1=Nn2c(nnc2-c2cccc(Br)c2)SC1`, for which the logD is 1.53.

In turn, `O=c1oc2ccc(Cl)cc2cc1C1=Nn2c(COc3ccc(Cl)cc3Cl)nnc2SC1` yielded a logD of 1.4.

Test in another series: not given
Conditions: not given
This is another data set of the same source.
For `COc1cc(C=Cc2cccnc2)ccc1C=Cc1cccnc1`, the logP came to 4.32.

Molecule `C(=Cc1cccnc1)c1ccc(C=Cc2cccnc2)cc1` returned a logP of 3.73.

Molecule `C(=C\c1ccc(/C=C/c2ccncc2)cc1)/c1ccncc1` yielded a logP of 3.93.

Test in a further series: not given
Conditions: not given
This is another data set of the same source.
With `CC(CCN1CCC(O)(c2ccc(Cl)cc2)CC1)c1ccc(F)cc1` (stereo unspecified), the logP turned out to be 4.02.

The molecule `Cc1ccc(C(=O)CCCN2CCC(O)(c3ccc(Cl)cc3)CC2)cc1` showed a logP of 3.44.

`COc1ccc(C(=O)CCCN2CCC(O)(c3ccc(Cl)cc3)CC2)cc1` showed a logP of 2.9.

Test in the next series: not given
Conditions: not given
This is another data set of the same source.
In the case of `CC(=O)OC(CNC(C)C)COc1cccc2ccccc12` (stereo unspecified), the logP was found to be 4.34.

For the molecule `CC(C)NCC(COc1cccc2ccccc12)OC(=O)c1ccc([N+](=O)[O-])cc1` (stereo unspecified), the logP turned out to be 5.97.

The molecule `CC=CC(=O)OC(CNC(C)C)COc1cccc2ccccc12` (stereo unspecified) returned a logP of 3.78.

The next series in a line: method code SF-HPLC, from DOI: 10.1016/j.ejps.2012.04.024, PMID: 22609526.
Conditions: not given
Take `COc1cc(OC)c2c(=O)c(OC)c(-c3ccc(OC)c(OC)c3)oc2c1`: the logP stood at 3.85.

In the case of `O=C(O)[C@H]1O[C@@H](Oc2c(-c3ccc(O)c(O)c3)oc3cc(O)cc(O)c3c2=O)[C@H](O)[C@@H](O)[C@@H]1O`, the logP was 0.79.

`O=C(OC[C@H]1O[C@@H](Oc2c(-c3ccc(O)c(O)c3)oc3cc(O)cc(O)c3c2=O)[C@H](O)[C@@H](O)[C@H]1O)c1cc(O)c(O)c(O)c1` gave a logP of -0.97.
